Assay results: PMC12748266, “Testing antimicrobial peptides inhibiting protein synthesis in living E. coli and K. pneumoniae using bio-orthogonal non-canonical amino-acid tagging” (Frontiers in Microbiology, 2025)
No end group written: not given here.

Legend:
E. coli ATCC 25922 [1] = experiment: BONCAT: HPG incorporation into newly synthesized proteins, flow cytometry; type: cell-based, Escherichia coli; details: compound at MIC; for Fluorescence Intensity (% of Control): 10 min pre-incubation then 30 min HPG, untreated = 100%, mean, n ≥ 3; for Decrease in fluorescence compared to untreated bacteria: 40 min total incubation (10 min + 30 min HPG)
Method: (§1) We used a modified protocol from [Lindivat et al. (2020)]. Briefly, overnight cultures of E. coli ATCC 25922 or K. pneumoniae ATCC 700603, prepared as described above, were diluted to a final concentration of 5×10^6 CFU/mL and allowed to adjust for 30 min at 37 °C. The culture was then incubated at 37 °C in the dark for 10 or 30 min in the presence or absence of each peptide or antibiotic at various concentrations, with a final volume of 1 mL. At this point, only in certain specified experimental assays, the compounds were removed from the supernatant by centrifugation (16,000 × g for 5 min) and bacteria were washed and resuspended in fresh supplemented M9 medium. Then, 32 μL of a 500 μM homopropargylglycine (HPG) solution were added to each sample, resulting in a final concentration of 16 μM in a finale volume of 1 mL. Also included in each assay were two untreated controls containing only bacteria and bacteria treated with 16 μM HPG alone, respectively. All samples were then incubated at 37 °C in the dark for 30 min. After incubation, samples were washed once with 1X filtered Phosphate Buffered Saline (PBS) (centrifuged at 16,000 x g for 5 min) and resuspended in PBS. After washing, samples were fixed with formaldehyde (Sigma Aldrich, USA) to a final concentration of 3% in 1 mL for 1 h at 25 °C. Subsequently, the samples were centrifuged at 16,000 x g for 5 min and resuspended in 1 mL of PBS. If not analysed immediately, the fixed samples were stored at 4 °C prior to performing the click chemistry reaction. Samples were centrifugated at 16,000 x g for 5 min and bacteria cells were dehydrated by ethanol that was added sequentially to achieve a final concentration of 50% (v/v) (3 min of incubation), 80% (v/v) (3 min of incubation), and 95% (v/v) (3 min of incubation). After dehydration, the samples were centrifugated (16,000 × g, 5 min) and resuspended in PBS. For cell analysis by SDS-PAGE, the following variations were implemented: bacterial cells were diluted in supplemented M9 medium to a final density of ~ 1 × 10^9 CFU/mL, and HPG was added to the samples at a final concentration of 160 μM. Bacteria were incubated with HPG for 0, 15, 30, 60, or 120 min at 37 °C in the dark.
(§2) The click reaction was carried out according to [Rostovtsev et al. (2002)]. 15 μL of a pre-mix solution (prepared as described above) were added to each sample containing fixed bacteria that had incorporated HPG (30 μL of pre-mix solution in case of samples prepared for SDS-PAGE analysis), resulting in the following final concentrations in each sample: 0.1 mM copper sulfate, 0.5 mM Tris (3-hydroxypropyltriazolylmethyl)amine (THPTA), and 2.5 μM Alexa Fluor azide 488. Additionally, 50 μL of freshly prepared 100 mM sodium ascorbate and 50 μL of 100 mM aminoguanidine were added (100 μL in case of samples prepared for SDS-PAGE analysis), bringing the final volume to 1 mL. The samples were gently inverted once to mix and incubated for 30 min in the dark at 25 °C. Finally, each sample was washed with PBS once (centrifuged at 16,000 × g for 5 min) and resuspended in 1 mL PBS.
An overnight culture of E. coli ATCC 25922, or of K. pneumoniae ATCC 700603, prepared as described above, was diluted to a final concentration of 5 × 10^6 CFU/mL and allowed to adjust for 30 min at 37 °C under shaking. Membrane permeabilization of bacteria was then assessed by incubating bacteria at 37 °C, in a final volume of 1 mL, with varying concentrations of each peptide or antibiotic used for the BONCAT assay. 5 min before the ending of the selected incubation time (40 min), propidium iodide probe was added to the samples to a final concentration of 10 μg/mL before analysis using a flow cytometer. A positive control consisted of E. coli cells dehydrated with ethanol (as described above), while untreated cells were used as negative control. The fluorescence of untreated cells was used to establish the gating for positive PI-stained cells. […]

E. coli ATCC 25922 [2] = experiment: BONCAT protein synthesis inhibition after antimicrobial washout; type: cell-based, Escherichia coli; details: 10 or 30 min at MIC (time not given), then 30 min HPG
Method: We used a modified protocol from [Lindivat et al. (2020)]. Briefly, overnight cultures of E. coli ATCC 25922 or K. pneumoniae ATCC 700603, prepared as described above, were diluted to a final concentration of 5×10^6 CFU/mL and allowed to adjust for 30 min at 37 °C. The culture was then incubated at 37 °C in the dark for 10 or 30 min in the presence or absence of each peptide or antibiotic at various concentrations, with a final volume of 1 mL. At this point, only in certain specified experimental assays, the compounds were removed from the supernatant by centrifugation (16,000 × g for 5 min) and bacteria were washed and resuspended in fresh supplemented M9 medium. […] If not analysed immediately, the fixed samples were stored at 4 °C prior to performing the click chemistry reaction. […]
(§3) An overnight culture of E. coli ATCC 25922, or of K. pneumoniae ATCC 700603, prepared as described above, was diluted to a final concentration of 5 × 10^6 CFU/mL and allowed to adjust for 30 min at 37 °C under shaking. Membrane permeabilization of bacteria was then assessed by incubating bacteria at 37 °C, in a final volume of 1 mL, with varying concentrations of each peptide or antibiotic used for the BONCAT assay. […] The fluorescence of untreated cells was used to establish the gating for positive PI-stained cells. […]

[3] = system: K. pneumoniae ATCC 700603; experiment: BONCAT: HPG incorporation into newly synthesized proteins, flow cytometry; type: cell-based, Klebsiella pneumoniae; details: compound at MIC; for Fluorescence Intensity (% of Control): 10 min pre-incubation then 30 min HPG, untreated = 100%, mean, n ≥ 3
Method: as §1
as §2, with “Finally, each sample was washed with PBS once (centrifuged at 16,000 × g for 5 min) and resuspended in 1 mL PBS.” left out
as §3

Compound | Fluorescence Intensity (% of Control) (E. coli ATCC 25922 [1]) | Decrease in fluorescence compared to untreated bacteria (E. coli ATCC 25922 [1]) | Reduction in fluorescence after washout (E. coli ATCC 25922 [2]) | Reduction in fluorescence ([3]; 10 min + 30 min HPG) | Fluorescence Intensity (% of Control) [3]
O=C(N[C@H](CO)[C@H](O)c1ccc([N+](=O)[O-])cc1)C(Cl)Cl [CHL, Chloramphenicol] | 20 % of Control | 80% | lost most of its inhibitory effects once removed from the medium | – | –
CO[C@H]1/C=C/O[C@@]2(C)Oc3c(C)c(O)c4c(O)c(c(/C=N/N5CCN(C)CC5)c(O)c4c3C2=O)NC(=O)/C(C)=C\C=C\[C@H](C)[C@H](O)[C@@H](C)[C@@H](O)[C@@H](C)[C@H](OC(C)=O)[C@@H]1C [RIF, Rifampicin] | 102 % of Control | did not affect fluorescence intensity | over 20% | did not affect fluorescence | 87 % of Control
RRIRPRPPRLPRPRPR [Bac7(1–16)] | 18 % of Control | – | – | – | 18 % of Control
RRIRPRPPRLPRPRPRPLPFPRPGPRPIPRPLPFP [Bac7(1–35)] | 14 % of Control | – | – | – | 6 % of Control
